Converted amounts (≈) assume the structure as drawn. The source made the active and inactive calls. The calls are words filed in the database; no cut-off is given here.
Experiments:
Staphylococcus aureus [1] = assay: Drug resistance, ratio of MIC for Staphylococcus aureus ATCC43300 after 18 passages exposure to MIC for Staphylococcus aureus ATCC43300 after first exposure; format: functional
Staphylococcus aureus [2] = assay: Antibacterial activity against Staphylococcus aureus ATCC25923 assessed as reduction in bacterial growth by broth microdilution assay; format: functional
Staphylococcus aureus [3] = assay: Antibacterial activity against Staphylococcus aureus ATCC31007 assessed as reduction in bacterial growth by broth microdilution assay; format: functional
Staphylococcus aureus [4] = assay: Antibacterial activity against […] Staphylococcus aureus ATCC43300 assessed as reduction in bacterial growth by broth microdilution assay; format: functional
Bacillus subtilis = assay: Antibacterial activity against […] Bacillus subtilis ATCC9372 assessed as reduction in bacterial growth by broth microdilution assay; format: functional
Enterococcus faecalis = assay: Antibacterial activity against penicillin-susceptible Enterococcus faecalis ATCC29212 assessed as reduction in bacterial growth by broth microdilution assay; format: functional
[5] = test system: Staphylococcus epidermidis; assay: Antibacterial activity against vancomycin-susceptible Staphylococcus epidermidis ATCC12228 assessed as reduction in bacterial growth by broth microdilution assay; format: functional
Klebsiella pneumoniae = assay: Antibacterial activity against erythromycin-susceptible Klebsiella pneumoniae ATCC10031 assessed as reduction in bacterial growth by broth microdilution assay; format: functional
Acinetobacter baumannii = assay: Antibacterial activity against Acinetobacter baumannii ATCC19606 assessed as reduction in bacterial growth by broth microdilution assay; format: functional
Escherichia coli = assay: Antibacterial activity against Escherichia coli ATCC25922 assessed as reduction in bacterial growth by broth microdilution assay; format: functional
Pseudomonas aeruginosa = assay: Antibacterial activity against penicillin-susceptible Pseudomonas aeruginosa ATCC27853 assessed as reduction in bacterial growth by broth microdilution assay; format: functional
[6] = Hemolytic activity in RBC (unknown origin) assessed as hemolysis; format: toxicity, cell-based
Staphylococcus aureus [7] = assay: Bactericidal activity against Staphylococcus aureus ATCC43300 at 2 to 16 ug/ml by time kill assay; format: functional, organism-based; settings: dose 2-16 µg/ml, time <= 12.0 hrs
Staphylococcus aureus [8] = assay: Bactericidal activity against Staphylococcus aureus ATCC43300 measured upto 12 hrs by time kill assay; format: functional, organism-based; settings: dose 2-16 µg/ml
Staphylococcus aureus [9] = assay: Bactericidal activity against Staphylococcus aureus ATCC43300 assessed as log reduction in CFU at 16 ug/ml by time kill assay; format: functional; settings: dose 16 µg/ml
Staphylococcus aureus [10] = assay: Bactericidal activity against Staphylococcus aureus ATCC43300 assessed as reduction in bacterial count at 16 ug/ml measured within 4 hrs by time kill assay relative to control; format: functional; parameters: scale not given: the % may be the effect or the level left; settings: dose 16 µg/ml
Staphylococcus aureus [11] = assay: Bactericidal activity against Staphylococcus aureus ATCC43300 assessed as eradication of bacterial cell at 16 ug/ml measured within 8 hrs by time kill assay relative to control; format: functional; settings: dose 16 µg/ml
Staphylococcus aureus [12] = assay: Antibacterial activity against Staphylococcus aureus ATCC43300 measured after 20 passages; format: functional, organism-based
Staphylococcus aureus [13] = assay: Drug resistance, ratio of MIC for Staphylococcus aureus ATCC43300 after 20 passages exposure to MIC for Staphylococcus aureus ATCC43300 after first exposure; format: functional
Cell membrane [14] = assay: Disruption of cell membrane integrity in Staphylococcus aureus ATCC43300 assessed as red fluorescence by DAPI staining based fluorescence assay; format: subcellular
Cell membrane [15] = assay: Disruption of cell membrane integrity in Staphylococcus aureus ATCC43300 assessed as blue fluorescence by DAPI staining based fluorescence assay; format: subcellular
Cell membrane [16] = assay: Induction of cytoplasmic membrane depolarization in Staphylococcus aureus ATCC43300 assessed as fold increase in fluorescence signal at 16 ug/ml measured at 20 mins DiSC3(5) dye-based fluorescence assay; format: subcellular; settings: dose 16.0 µg/ml
Cell membrane [17] = assay: Induction of cytoplasmic membrane depolarization in Staphylococcus aureus ATCC43300 assessed as fold increase in fluorescence signal measured upto 20 mins DiSC3(5) dye-based fluorescence assay; format: subcellular; settings: dose 2-16 µg/ml
Cell membrane [18] = assay: Induction of cell membrane permeabilization in Staphylococcus aureus ATCC43300 assessed as increase in fluorescence intensity by propidium iodide dye-based fluorescence assay; format: subcellular; settings: dose 2-16 µg/ml
Cell membrane [19] = assay: Induction of cell membrane permeabilization in Staphylococcus aureus ATCC43300 assessed as fold increase in fluorescence intensity at 16 ug/ml by propidium iodide dye-based fluorescence assay; format: subcellular; settings: dose 16.0 µg/ml
Cell membrane [20] = assay: Induction of cell membrane disruption in Staphylococcus aureus ATCC43300 assessed as increase in protein leakage; format: subcellular; settings: dose 2-16 µg/ml
Cell membrane [21] = assay: Induction of cell membrane disruption in Staphylococcus aureus ATCC43300 assessed as increase in DNA leakage; format: subcellular; settings: dose 2-16 µg/ml
Cell membrane [22] = assay: Induction of cell membrane disruption in Staphylococcus aureus ATCC43300 assessed as fold increase in protein leakage at 16 ug/ml; format: subcellular; settings: dose 16.0 µg/ml
Cell membrane [23] = assay: Induction of cell membrane disruption in Staphylococcus aureus ATCC43300 assessed as fold increase in DNA leakage at 16 ug/ml; format: subcellular; settings: dose 16.0 µg/ml

Question: For CCn1cc(C(=O)O)c(=O)c2cc(F)c(N3CCNCC3)cc21 [NORFLOXACIN], which “fold change (FC)” value (Staphylococcus aureus [1]) is on record?
Answer: 256

Question: What does the source list for CC(=O)c1c(OCC(=O)NCCN(C)C)c2c(c3c1OC(C)(CCC=C(C)C)C=C3)OC(C)(CCC=C(C)C)C=C2 (stereo not given)?
Answer: MIC (Staphylococcus aureus [2]): 4 µg/mL (≈ 7.08 µM); MIC (Staphylococcus aureus [3]): 2 µg/mL (≈ 3.54 µM); MIC (Staphylococcus aureus [4]): 2 µg/mL (≈ 3.54 µM); MIC (Bacillus subtilis): 2 µg/mL (≈ 3.54 µM); MIC (Enterococcus faecalis): 1 µg/mL (≈ 1.77 µM); MIC [5]: 1 µg/mL (≈ 1.77 µM); MIC (Klebsiella pneumoniae): > 128 µg/mL; MIC (Acinetobacter baumannii): 128 µg/mL (≈ 227 µM); MIC (Escherichia coli): > 128 µg/mL; MIC (Pseudomonas aeruginosa): > 128 µg/mL; HC90 ([6]; rbc): 205.8 µg/mL; HC50 ([6]; red blood cells): 112 µg/mL; Activity (Staphylococcus aureus [7]): Time-dependent-effect; Activity (Staphylococcus aureus [8]): Dose-dependent-effect; log(activity) (Staphylococcus aureus [9]): 8.78; Activity (Staphylococcus aureus [10]): 99.9%; Activity (Staphylococcus aureus [11]): 100%; Activity (Staphylococcus aureus [12]): inactive; fold change (FC) (Staphylococcus aureus [13]): 4; Activity (Cell membrane [14]): Active; Activity (Cell membrane [15]): Active; fold change (FC) (Cell membrane [16]): 4.7; Activity (Cell membrane [17]): Dose-dependent-effect; Activity (Cell membrane [18]): Dose-dependent-effect; fold change (FC) (Cell membrane [19]): 2.3; Activity (Cell membrane [20]): Dose-dependent-effect; Activity (Cell membrane [21]): Dose-dependent-effect; fold change (FC) (Cell membrane [22]): 6.3; fold change (FC) (Cell membrane [23]): 6.7

From ChEMBL document CHEMBL6074631, “Design, synthesis, and evaluation of pyranochromene derivatives as membrane targeting antibacterials against Gram-positive bacteria” (Bioorg Med Chem Lett, 2024)
